Results published in ChEMBL document CHEMBL1777681, “Structure and activity relationships of tartrate-based TACE inhibitors” (Bioorg Med Chem Lett, 2010).

Columns and labels:
[1] = biological target: T1, Disintegrin and metalloproteinase domain-containing protein 17 (Homo sapiens, UniProt P78536); experiment: Inhibition of TACE
[2] = Clearance in Sprague-Dawley rat at 3 mg/kg, iv; assay type: ADME, organism-based; design: dose 3 mg/kg, route intravenous; conditions: in vivo
[3] = AUC in Sprague-Dawley rat at 3 mg/kg, iv; assay type: ADME, organism-based; design: dose 3 mg/kg, route intravenous; conditions: plasma
[4] = Half life in Sprague-Dawley rat at 10 mg/kg, po; assay type: ADME, organism-based; design: dose 10 mg/kg, route oral; conditions: in vivo
[5] = AUC in Sprague-Dawley rat at 10 mg/kg, po; assay type: ADME, organism-based; design: dose 10 mg/kg, route oral; conditions: plasma
[6] = Bioavailability in Sprague-Dawley rat at 10 mg/kg, po; assay type: ADME, organism-based; conditions: in vivo
[7] = biological target: T2, Disintegrin and metalloproteinase domain-containing protein 10 (Homo sapiens, UniProt O14672); experiment: Inhibition of ADAM10
T2 sequence (O14672 whole entry): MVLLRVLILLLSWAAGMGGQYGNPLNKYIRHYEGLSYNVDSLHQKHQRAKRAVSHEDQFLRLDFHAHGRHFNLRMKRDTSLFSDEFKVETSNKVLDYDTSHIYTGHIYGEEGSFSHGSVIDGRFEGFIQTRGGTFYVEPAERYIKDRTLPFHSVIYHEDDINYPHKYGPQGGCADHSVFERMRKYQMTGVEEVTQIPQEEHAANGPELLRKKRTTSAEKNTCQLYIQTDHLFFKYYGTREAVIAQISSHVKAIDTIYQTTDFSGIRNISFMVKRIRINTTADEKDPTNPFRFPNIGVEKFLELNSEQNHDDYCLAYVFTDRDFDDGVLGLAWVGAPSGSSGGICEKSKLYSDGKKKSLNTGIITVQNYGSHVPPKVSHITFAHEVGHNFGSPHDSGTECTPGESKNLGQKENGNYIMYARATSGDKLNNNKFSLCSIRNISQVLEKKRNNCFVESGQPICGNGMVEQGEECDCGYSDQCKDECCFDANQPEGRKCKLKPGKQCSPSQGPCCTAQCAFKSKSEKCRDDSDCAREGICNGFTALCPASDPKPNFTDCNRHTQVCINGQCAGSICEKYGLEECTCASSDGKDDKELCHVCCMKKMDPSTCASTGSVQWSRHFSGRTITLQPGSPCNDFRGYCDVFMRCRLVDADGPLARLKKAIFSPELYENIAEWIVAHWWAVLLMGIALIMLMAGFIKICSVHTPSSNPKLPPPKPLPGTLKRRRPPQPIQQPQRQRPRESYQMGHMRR

Interstitial collagenase = biological target: T3, Interstitial collagenase (Homo sapiens, UniProt P03956); experiment: Inhibition of MMP1
T3 sequence (P03956 whole entry): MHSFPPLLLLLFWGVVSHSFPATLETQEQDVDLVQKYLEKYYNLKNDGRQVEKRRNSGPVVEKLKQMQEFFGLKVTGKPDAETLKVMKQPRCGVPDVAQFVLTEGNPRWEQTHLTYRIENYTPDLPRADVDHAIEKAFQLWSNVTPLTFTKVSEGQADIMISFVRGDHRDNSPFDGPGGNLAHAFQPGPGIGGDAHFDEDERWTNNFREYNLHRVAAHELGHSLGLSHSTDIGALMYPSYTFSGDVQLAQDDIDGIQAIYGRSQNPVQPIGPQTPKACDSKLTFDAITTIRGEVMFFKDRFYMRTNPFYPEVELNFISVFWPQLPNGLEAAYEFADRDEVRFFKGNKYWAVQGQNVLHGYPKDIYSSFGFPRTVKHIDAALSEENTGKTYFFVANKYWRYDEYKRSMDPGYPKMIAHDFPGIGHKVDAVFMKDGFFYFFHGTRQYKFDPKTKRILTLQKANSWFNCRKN

[8] = biological target: 72 kDa type IV collagenase (Homo sapiens, UniProt P08253); experiment: Inhibition of MMP2
Sequence of 72 kDa type IV collagenase (P08253 whole entry): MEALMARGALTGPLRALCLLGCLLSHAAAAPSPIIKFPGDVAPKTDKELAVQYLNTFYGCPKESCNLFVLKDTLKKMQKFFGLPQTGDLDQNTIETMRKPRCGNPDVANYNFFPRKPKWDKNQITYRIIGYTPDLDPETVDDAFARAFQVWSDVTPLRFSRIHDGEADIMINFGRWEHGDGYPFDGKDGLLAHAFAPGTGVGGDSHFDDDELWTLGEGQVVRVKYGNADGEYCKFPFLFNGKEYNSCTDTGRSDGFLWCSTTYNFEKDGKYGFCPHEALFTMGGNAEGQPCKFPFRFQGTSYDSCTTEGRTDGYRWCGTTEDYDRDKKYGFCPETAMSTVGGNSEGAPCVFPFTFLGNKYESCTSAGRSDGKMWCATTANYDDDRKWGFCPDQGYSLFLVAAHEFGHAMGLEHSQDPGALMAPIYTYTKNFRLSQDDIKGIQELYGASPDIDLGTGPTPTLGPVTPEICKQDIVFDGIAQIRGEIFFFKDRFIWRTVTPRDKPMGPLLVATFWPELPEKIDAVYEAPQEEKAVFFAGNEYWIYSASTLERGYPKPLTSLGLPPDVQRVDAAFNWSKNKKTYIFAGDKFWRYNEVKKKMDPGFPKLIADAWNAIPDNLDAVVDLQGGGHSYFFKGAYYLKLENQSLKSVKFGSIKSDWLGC

Matrilysin = biological target: T4, Matrilysin (Homo sapiens, UniProt P09237); experiment: Inhibition of MMP7
T4 sequence (P09237 whole entry): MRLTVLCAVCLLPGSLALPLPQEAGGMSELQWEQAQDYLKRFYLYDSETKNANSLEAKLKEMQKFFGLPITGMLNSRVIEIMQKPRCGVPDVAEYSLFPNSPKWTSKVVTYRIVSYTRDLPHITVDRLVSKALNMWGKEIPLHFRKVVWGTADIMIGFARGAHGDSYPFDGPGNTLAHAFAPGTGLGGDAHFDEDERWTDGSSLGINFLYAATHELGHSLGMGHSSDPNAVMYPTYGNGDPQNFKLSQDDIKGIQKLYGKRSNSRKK

[9] = biological target: Matrix metalloproteinase-9 (Homo sapiens, UniProt P14780); experiment: Inhibition of MMP9
Sequence of Matrix metalloproteinase-9 (P14780 whole entry): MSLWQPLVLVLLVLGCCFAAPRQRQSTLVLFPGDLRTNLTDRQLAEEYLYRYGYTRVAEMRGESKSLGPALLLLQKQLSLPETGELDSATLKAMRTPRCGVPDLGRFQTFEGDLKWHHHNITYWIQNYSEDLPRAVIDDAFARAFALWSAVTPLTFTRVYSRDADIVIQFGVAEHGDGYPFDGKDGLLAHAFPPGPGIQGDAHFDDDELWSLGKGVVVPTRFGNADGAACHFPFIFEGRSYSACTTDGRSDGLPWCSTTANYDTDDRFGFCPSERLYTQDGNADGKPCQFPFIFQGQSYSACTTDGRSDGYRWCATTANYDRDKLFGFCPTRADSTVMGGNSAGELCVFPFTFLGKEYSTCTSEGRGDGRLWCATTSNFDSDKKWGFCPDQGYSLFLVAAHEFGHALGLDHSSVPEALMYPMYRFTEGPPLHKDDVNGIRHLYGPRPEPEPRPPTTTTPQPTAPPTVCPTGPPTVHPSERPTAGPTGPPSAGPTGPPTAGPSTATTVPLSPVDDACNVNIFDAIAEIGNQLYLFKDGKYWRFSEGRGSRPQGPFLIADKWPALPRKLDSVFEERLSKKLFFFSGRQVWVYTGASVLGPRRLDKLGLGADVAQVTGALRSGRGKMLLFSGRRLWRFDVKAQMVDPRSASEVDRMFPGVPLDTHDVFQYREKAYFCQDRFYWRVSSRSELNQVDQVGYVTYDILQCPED

Collagenase 3 = Collagenase 3 (Homo sapiens, UniProt P45452); experiment: Inhibition of MMP13
[10] = biological target: Matrix metalloproteinase-14 (Homo sapiens, UniProt P50281); experiment: Inhibition of MMP14
[11] = biological target: T1, Disintegrin and metalloproteinase domain-containing protein 17; experiment: Inhibition of TACE at 500 nM
Stromelysin-1 = Stromelysin-1 (Homo sapiens, UniProt P08254); experiment: Inhibition of MMP3
Sequence of Stromelysin-1 (P08254 whole entry): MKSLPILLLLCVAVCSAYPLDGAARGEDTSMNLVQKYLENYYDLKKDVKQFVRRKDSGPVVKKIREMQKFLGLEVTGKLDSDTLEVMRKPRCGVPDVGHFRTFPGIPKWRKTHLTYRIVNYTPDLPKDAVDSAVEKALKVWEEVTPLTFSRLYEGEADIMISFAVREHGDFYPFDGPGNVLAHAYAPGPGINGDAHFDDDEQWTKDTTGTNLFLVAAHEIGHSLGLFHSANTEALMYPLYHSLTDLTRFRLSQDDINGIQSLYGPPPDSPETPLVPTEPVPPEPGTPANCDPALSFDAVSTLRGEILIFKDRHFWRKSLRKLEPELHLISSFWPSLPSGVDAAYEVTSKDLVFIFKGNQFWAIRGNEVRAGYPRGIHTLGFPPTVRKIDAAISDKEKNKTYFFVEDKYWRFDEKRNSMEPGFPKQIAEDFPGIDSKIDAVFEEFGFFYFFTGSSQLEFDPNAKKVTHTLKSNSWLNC

T1 sequence (P78536 whole entry, the tested form may be a part): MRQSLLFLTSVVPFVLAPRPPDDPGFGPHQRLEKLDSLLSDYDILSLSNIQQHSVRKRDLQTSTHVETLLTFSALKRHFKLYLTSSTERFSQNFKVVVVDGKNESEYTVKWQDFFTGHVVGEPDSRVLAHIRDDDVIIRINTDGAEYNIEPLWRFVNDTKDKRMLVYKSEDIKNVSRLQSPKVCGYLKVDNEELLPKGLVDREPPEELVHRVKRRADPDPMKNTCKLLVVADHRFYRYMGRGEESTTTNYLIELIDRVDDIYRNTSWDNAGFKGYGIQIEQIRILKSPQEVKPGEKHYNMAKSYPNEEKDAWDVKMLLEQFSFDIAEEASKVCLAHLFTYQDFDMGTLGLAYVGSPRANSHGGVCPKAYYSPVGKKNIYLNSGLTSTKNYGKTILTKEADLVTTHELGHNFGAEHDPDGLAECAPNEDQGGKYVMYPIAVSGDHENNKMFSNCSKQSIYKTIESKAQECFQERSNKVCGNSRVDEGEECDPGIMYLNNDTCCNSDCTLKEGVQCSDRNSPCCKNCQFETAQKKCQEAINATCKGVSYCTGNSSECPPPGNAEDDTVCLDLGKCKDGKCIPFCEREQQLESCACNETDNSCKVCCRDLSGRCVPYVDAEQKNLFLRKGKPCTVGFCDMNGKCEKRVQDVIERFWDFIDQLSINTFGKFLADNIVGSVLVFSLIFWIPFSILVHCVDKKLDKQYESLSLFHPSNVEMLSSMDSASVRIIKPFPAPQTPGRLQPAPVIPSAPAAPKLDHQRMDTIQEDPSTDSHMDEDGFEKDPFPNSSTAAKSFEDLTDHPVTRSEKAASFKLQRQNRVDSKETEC

Compound | Ki [1] [nM] | other results
O=C(NCc1ccc(-n2ccnc2)cc1)[C@H](O)[C@@H](O)C(=O)N1CCCC1c1cccc(Cl)c1 (mixture of isomers) | 270 | 
N#Cc1sccc1-c1ccc(CNC(=O)[C@H](O)[C@@H](O)C(=O)N2CCC[C@@H]2c2ccccc2)cc1 | 2 | 
C[C@@H](NC(=O)[C@H](O)[C@@H](O)C(=O)N1CCC[C@@H]1c1cccc(Cl)c1)c1ccc(-n2cccn2)cc1 | 0.86 | clearance [2]: 35 mL/min/kg; AUC [3]: 3.1 µM·h; half-life [4]: 36 min; AUC [5]: 2.1 µM·h; bioavailability [6]: 20%; Ki [7]: 166 nM; Ki (Interstitial collagenase): > 100000 nM; Ki [8]: 43600 nM; Ki (Matrilysin): 3800 nM; Ki [9]: 88400 nM; Ki (Collagenase 3): 3300 nM; Ki [10]: 1100 nM
Cc1nc2ccccc2n1Cc1ccc(CNC(=O)[C@H](O)[C@@H](O)C(=O)N2CCCC2c2cccs2)s1 (mixture of isomers) | 4 | 
Cc1nc2ccccc2n1Cc1ccc(CNC(=O)[C@H](O)[C@@H](O)C(=O)N2CCCC2c2ccccn2)s1 (mixture of isomers) | 8 | 
O=C(NCc1ccc(-c2ccccc2)nc1)[C@H](O)[C@@H](O)C(=O)N1CCCC1c1cccc(Cl)c1 (mixture of isomers) | 307 | 
Cc1nc2ccccc2n1Cc1ccc(CNC(=O)[C@H](O)[C@@H](O)C(=O)N2CCC[C@@H]2c2csc(N)n2)s1 | 2 | 
O=C(NCc1ccc(Cc2cccc(Cl)c2)s1)[C@H](O)[C@@H](O)C(=O)N1CCC[C@@H]1c1cccc(Cl)c1 | 48 | 
N#Cc1cnccc1-c1ccc(CNC(=O)[C@H](O)[C@@H](O)C(=O)N2CCC[C@@H]2c2ccccc2)cc1 | 5 | 
N#Cc1ccccc1N1CC2C(CNC(=O)[C@H](O)[C@@H](O)C(=O)N3CCC[C@@H]3c3ccccc3)C2C1 (stereo partly specified) | 12 | 
Cc1nc2ccccc2n1Cc1ccc(CNC(=O)[C@H](O)[C@@H](O)C(=O)N2CCC[C@@H]2c2cccc(Cl)c2)s1 | 4 | 
O=C(NCc1ccc(-c2ccon2)cc1)[C@H](O)[C@@H](O)C(=O)N1CCC[C@@H]1c1ccccc1 | 8 | 
O=C(NCc1ccc(-c2ccncc2)cc1)[C@H](O)[C@@H](O)C(=O)N1CCC[C@@H]1c1ccccc1 | 15 | 
N#Cc1ccccc1N1CCC(CNC(=O)[C@H](O)[C@@H](O)C(=O)N2CCCC2c2cccc(Cl)c2)CC1 (mixture of isomers) | 4 | 
COc1ccccc1Cc1ccc(CNC(=O)[C@H](O)[C@@H](O)C(=O)N2CCC[C@@H]2c2cccc(Cl)c2)s1 | 3 | 
O=C(NCc1ccc(Cn2c(C(F)(F)F)nc3ccccc32)s1)[C@H](O)[C@@H](O)C(=O)N1Cc2ccccc2C1 | 0.2 | 
O=C(NCc1ccc(-c2nccs2)cc1)[C@H](O)[C@@H](O)C(=O)N1CCCC1c1cccc(Cl)c1 (mixture of isomers) | 74 | 
Cc1nc2ccccc2n1Cc1ccc(CNC(=O)[C@H](O)[C@@H](O)C(=O)N2CCCC2c2ccncc2)s1 (mixture of isomers) | 36 | 
O=C(NCc1ccc(-c2cccnc2)cc1)[C@H](O)[C@@H](O)C(=O)N1CCC[C@@H]1c1ccccc1 | 36 | 
Cc1nc2ccccc2n1Cc1ccc(CNC(=O)[C@H](O)[C@@H](O)C(=O)N2Cc3ccccc3C2)s1 | 0.5 | 
O=C(NCc1ccc(Cc2ccsc2)s1)[C@H](O)[C@@H](O)C(=O)N1CCC[C@@H]1c1cccc(Cl)c1 | 11 | 

Compound | Ki [1] [nM] | other results
C[C@H]1CN(c2ccccc2C#N)CCC1CNC(=O)[C@H](O)[C@@H](O)C(=O)N1CCC[C@@H]1c1ccccc1 (stereo partly specified) | 315 | 
O=C(NCc1cccs1)[C@H](O)[C@@H](O)C(=O)N1CCCC1c1cccc(Cl)c1 (stereo partly specified) |  | inhibition [11]: 44%
O=C(NCc1ccc(-c2cccs2)cc1)[C@H](O)[C@@H](O)C(=O)N1CCC[C@@H]1c1ccccc1 | 28 | 
Cc1nc2ccccc2n1Cc1ccc(CNC(=O)[C@H](O)[C@@H](O)C(=O)N2CCCC2c2nccs2)s1 (mixture of isomers) | 9 | 
O=C(NCc1ccc(-c2cscn2)cc1)[C@H](O)[C@@H](O)C(=O)N1CCCC1c1cccc(Cl)c1 (mixture of isomers) | 18 | 
O=C(NCc1ccc(Cc2ccc(Cl)cc2)s1)[C@H](O)[C@@H](O)C(=O)N1CCC[C@@H]1c1cccc(Cl)c1 | 37 | 
C[C@@H]1CN(c2ccccc2C#N)CCC1CNC(=O)[C@H](O)[C@@H](O)C(=O)N1CCC[C@@H]1c1ccccc1 (stereo partly specified) | 2 | 
O=C(NCc1ccc(Cn2ccnc2)s1)[C@H](O)[C@@H](O)C(=O)N1CCC[C@@H]1c1cccc(Cl)c1 | 37 | 
O=C(NCc1ccc(-n2cccn2)cc1)[C@H](O)[C@@H](O)C(=O)N1CCCC1c1cccc(Cl)c1 (mixture of isomers) | 4 | Ki [7]: 602 nM; Ki (Interstitial collagenase): > 100000 nM; Ki [8]: 1900 nM; Ki (Stromelysin-1): 19000 nM; Ki (Matrilysin): 47000 nM; Ki [9]: 11000 nM; Ki (Collagenase 3): 3500 nM; Ki [10]: 120 nM
O=C(NCc1cc(Cc2ccccc2)cs1)[C@H](O)[C@@H](O)C(=O)N1CCCC1c1cccc(Cl)c1 (stereo partly specified) | 45 | 
O=C(NCc1ccc(-c2ccsc2)cc1)[C@H](O)[C@@H](O)C(=O)N1CCC[C@@H]1c1ccccc1 | 13 | 
O=C(NCc1ccc(Cc2cccc3ccccc23)s1)[C@H](O)[C@@H](O)C(=O)N1CCC[C@@H]1c1cccc(Cl)c1 |  | inhibition [11]: 50%
O=C(NCc1ccc(-c2ccccc2)cc1)[C@H](O)[C@@H](O)C(=O)N1CCC[C@@H]1c1ccccc1 | 22 | 
Cc1nc2ccccc2n1Cc1ccc(CNC(=O)[C@H](O)[C@@H](O)C(=O)N2CCCC2c2cccnc2)s1 (mixture of isomers) | 12 | 
Cc1nc2ccccc2n1-c1ccc(CNC(=O)[C@H](O)[C@@H](O)C(=O)N2CCCC2c2cccc(Cl)c2)cc1 (mixture of isomers) | 296 | 
O=C(NCc1ccc(-c2csnn2)cc1)[C@H](O)[C@@H](O)C(=O)N1CCCC1c1cccc(Cl)c1 (mixture of isomers) | 3 | 
N#Cc1ccccc1-c1ccc(CNC(=O)[C@H](O)[C@@H](O)C(=O)N2CCC[C@@H]2c2ccccc2)cc1 | 17 | 
O=C(NCc1ccc(Cc2ccccc2)s1)[C@H](O)[C@@H](O)C(=O)N1CCC[C@@H]1c1cccc(Cl)c1 | 20 | 
O=C(NCc1ccc(-c2ccccc2)cn1)[C@H](O)[C@@H](O)C(=O)N1CCCC1c1cccc(Cl)c1 (mixture of isomers) | 6 | 
O=C(NCc1ccc(Cc2ccccc2Cl)s1)[C@H](O)[C@@H](O)C(=O)N1CCC[C@@H]1c1cccc(Cl)c1 | 9.3 | 
